Marks after values point to notes of the source that are not given here.
Key:
[1] = test system: atopic dermatitis; test: DNFB-induced atopic dermatitis mouse model (AD Score); assay type: in vivo, BALB/C mice; set-up: scale not given here; details: DNFB mice
Protocol: 56 clean-grade BALB/C mice aged 6-8 weeks were subjected to 5 days of adaptive feeding and then randomized into 7 groups of 8 mice each: • A. Blank control group • B. Modeling+solvent group • C. Modeling+blank matrix group • D. Modeling+positive drug mometasone furoate group • E. Modeling+1 wt % of benvitimod group • F. […] The animal experiments were conducted in accordance with the Experimental Animal Feeding, Management and Use Guidelines of China Pharmaceutical University and in compliance with animal study ethics and regulations. As shown in the above procedures, the solvent control or DNFB was given in the morning for modeling; from day 5, the test compound ointment was administered once every afternoon at 50 mg/dose evenly on the skin surface. The specific administration method is as shown above; Specific procedures: […] Severity of atopic dermatitis was scored using the AD Score criteria The severity of the appearance of dermatitis was evaluated based on 4 indicators: A. erythema/bleeding; B. dryness; C. effusion/crusting; D. edema.

[2] = Ointment diffusion test, ex vivo rabbit skin; assay type: in vitro ADME; details: ointments: 2# 1.2 wt %, 6# 1.2 wt %, benvitimod 1.0 wt %, 32° C.
Protocol: Test compounds: compound 2 #ointment, 1.2 wt %; compound 6 #ointment, 1.2 wt %; benvitimod ointment, 1.0 wt %;
• (1) Preparation of ex vivo rabbit skin • (2) Preparation of receiving liquid: 100 mL of polyethylene glycol 400 solution was brought to a final volume of 250 mL with normal saline. The mixture was mixed well and stored at 4° C. Before each permeation in the receiving compartment, the system was preheated to 32° C. • (3) In vitro transdermal test: A drug transdermal diffusion apparatus was used to fix the processed rabbit skin between the supply and receiving compartments, with the stratum corneum facing the supply compartment. A constant temperature water bath circulation at 32° C. was maintained. The system was equilibrated for 30 min. Upon each replacement of the receiving liquid, the air at the lower layer was exhausted, and the liquid droplets on the skin surface were removed with paper. 0.5 g of the ointment was evenly smeared in the supply compartment. The system was stirred with a magnetic stirring at a rotation speed of 600 r/min. At 0.5, 1, 2, 3, 4, 5, 7, 9, 12, and 24 h, 1 mL of sample liquid was taken out from the receiving compartment and transferred into a liquid phase vial, and simultaneously, an equal amount of fresh receiving liquid at the same temperature was added. The liquid phase detection was conducted to calculate the drug permeation rate.

[3] = test system: IMQ-induced psoriasis; test: IMQ-induced psoriasis in mice (PASI score); assay type: in vivo, KM mice; details: for PASI score (folds, scales, erythema): IMQ mice, 1.2 wt % in blank matrix, 62.5 mg topical
Protocol: • 1) The efficacy on IMQ-induced psoriasis in mice by compound 6 # was evaluated.
[drawing 91] • 2) Grouping • (1) Petrolatum+blank matrix group, 10 mice; • (2) IMQ+blank matrix group, 10 mice; • (3) IMQ+compound 6 #group (1.2 wt % in blank matrix), 10 mice. • IMQ: imiquimod • 3) Formulation • IMQ: 5% imiquimod (imiquimod was used for inducing psoriasis on the skin of modeling mice) 1.2% compound 6 #formulation was prepared in blank matrix • 4) Animals • Species and strain: SPF-grade KM mice, male • Weight: 35-40 g • Source: SPF (Beijing) Biotechnology Co., Ltd. • Housing conditions: air-conditioned room, with a temperature of 18-26° C. and a relative humidity of 20%-60%. • 5) Procedures
Skin pretreatment: Mice were given free access to water and food. After 5 days of adaptation in the animal room, the hair on the back of the mice within an area of 2 cm×2.5 cm was shaved. The area was treated with a depilatory cream for 30 s-1 min, and then the cream was removed with cotton pads. Randomization: 24 h after depilation, […] by weight: petrolatum+blank matrix group (10 mice); IMQ+blank matrix group (10 mice); IMQ+compound 6 #group (1.2% compound in blank matrix) (10 mice).
Modeling and treatment: 62.5 mg of 5% imiquimod or petrolatum in the morning was administered to the mice in the morning. In the afternoon, 62.5 mg of blank matrix or 1.2% compound 6 # was smeared on the back.
Recording: Before modeling in the morning, the condition of the skin folds, erythema, and scales was observed, scored, and photographed daily, and the mouse PASI score was calculated.

[4] = day 0, before ointment treatment (from day 5)
[5] = day 4, before ointment treatment (from day 5)
[6] = day 6, ointment 50 mg once daily from day 5 (1.2 wt % 2#/6#, 1 wt % benvitimod)
[7] = day 8, ointment 50 mg once daily from day 5 (1.2 wt % 2#/6#, 1 wt % benvitimod)
[8] = day 10, ointment 50 mg once daily from day 5 (1.2 wt % 2#/6#, 1 wt % benvitimod)

Row | SMILES | Back AD score [1, 4] | Back AD score [1, 5] | Back AD score [1, 6] | Back AD score [1, 7] | Back AD score [1, 8] | 24-hour drug permeation rate (rank order) [2] | PASI score (folds, scales, erythema) ([3]; Day 1) | PASI score (folds, scales, erythema) ([3]; Day 2) | PASI score (folds, scales, erythema) ([3]; Day 3) | PASI score (folds, scales, erythema) ([3]; Day 4) | PASI score (folds, scales, erythema) ([3]; Day 5) | PASI score (folds, scales, erythema) ([3]; Day 6) | PASI score (folds, scales, erythema) ([3]; Day 7) | therapeutic effect versus IMQ+blank matrix group ([3]; day 7, 1.2 wt % in blank matrix)
1 | Oc1cc(/C=C/c2ccc(F)cc2)cc(O)c1C1CCCCC1 [Compound 6, (E)-2-cyclohexyl-5-(4-fluorostyryl)-1,3-benzenediol] | 0.00 ± 0.00 | 3.50 ± 0.35 | 5.56 ± 1.45 | 6.69 ± 1.64**^a | 5.44 ± 1.13**^aab | benvitimod >2 #>6 # | 3.90 | 4.30 | 6.10 | 6.30 | 6.50 | 5.80 | 5.60 | significantly superior therapeutic effect
2 | CC(C)c1c(O)cc(/C=C/c2ccccc2)cc1O [Reference 1#, Benvitimod, reference compound] | 0.00 ± 0.00 | 3.63 ± 0.78 | 7.44 ± 1.07 | 7.19 ± 1.14 | 6.81 ± 1.00 | benvitimod >2 #>6 # | – | – | – | – | – | – | – | –

Source: patent publication US20250382250A1, “STILBENE DERIVATIVE AS AHR AGONIST AND USE THEREOF” (NANJING GRITPHARMACO., LTD., priority 2022, published 2025)
